These results are taken from patent US12257243B2, “5-hydroxy-7-oxabicyclo[2.2.1]heptane-2-carboxamide derivatives for inducing chondrogenesis for treating joint damage” (NOVARTIS AG, priority 2018, dated 2025).

The structures appear in SMILES notation. pIC50: −log10 of the molar value. Read-outs that look alike come from different tables or passages of the source.

The subject of this assay is ALP in normal human articular chondrocytes (NHACs). In words: Alkaline Phosphatase (ALP) activity assay (staining and quantitation) in NHACs, prevention of chondrocyte hypertrophy. The settings on record: human IL-1 beta 10 ng/mL, 12 days; for pIC50: Fast Blue RR staining, high content imaging, read-out: ALP in NHAC IC50; for Emax / ALP in NHAC (% Efficacy): value in parentheses; for Emax: read-out: ALP in NHAC (% Efficacy). Format: cell-based. On the procedure:
The compounds of the present invention were evaluated in the Alkaline Phosphatase (ALP) activity assay to determine the ability of the compounds to prevent chondrocyte hypertrophy in normal human articular chondrocytes (NHACs).
Normal human articular chondrocytes (NHACs) were purchased from PromoCell (Heidelberg, Germany) and grown in Chondrocyte Growth Medium (CGM; Lonza, Walkersville, Md.).
NHACs were expanded in Chondrocyte Growth Medium (CGM) from Lonza until they reached a 60-80% confluency. To initiate differentiation, 7,500 cells were plated/well with indicated test compound dose in 384-well Cell Carrier Ultra plates (Perkin Elmer) with DMEM (SH30022—HyClone) containing 10% FBS (35-015-CV—Corning), 1% Pen/Strep antibiotics (SV30010—HyClone), and 1% Normocin (50 mg/mL—InvivoGen). Cells with test compounds were incubated at 37° C., 5% CO2 for 5 hours and then added human IL-1 beta (AF-200-1B—Peprotech) to each well at a final concentration of 10 ng/mL and incubated at 37° C., 5% CO2 for 12 days.
To detect the presence of hypertrophic cells, NHACs were fixed with 4% paraformaldehyde and Hoechst 33342 (Invitrogen) dye for 30 minutes, rinsed in PBS, then stained with Fast Blue RR Salt (F0500—Sigma) with Naphthol AS-MX Phosphate Alkaline Solution, 0.25% (855—Sigma-Aldrich).
The staining was imaged by fluorescent microscopy, using the 561 nm wavelength, and/or quantified by high content imaging with the Image press Confocal (Molecular Devices, Sunnyvale, Calif.). Data analyses were performed with a customized multiwavelength cell-scoring application.

In the case of `COc1ccc(NC(=O)[C@@H]2[C@@H](c3cccc(C(F)(F)F)c3)[C@H]3O[C@@H]2C[C@@H]3O)cc1C(F)(F)F` (racemic) [Example 20, rac-(1R,2R,3S,4R,5S)-5-hydroxy-N-(4-methoxy-3-trifluoromethyl)phenyl)-3-(3-(trifluoromethyl)phenyl)-7-oxabicyclo[2.2.1]heptane-2-carboxamide], under “Chondrocyte, 288 h”, the pIC50 was 4.85 and the Emax amounted to 102%.
Regarding `O=C(Nc1cc(F)cc(C(F)(F)F)c1)[C@@H]1[C@@H](c2cccc(C(F)(F)F)c2)[C@H]2O[C@@H]1C[C@@H]2O` (racemic) [Example 17, rac-(1R,2R,3S,4R,5S)—N-(3-fluoro-5-(trifluoromethyl)phenyl)-5-hydroxy-3-(3-(trifluoromethyl)phenyl)-7-oxabicyclo[2.2.1]heptane-2-carboxamide], where the note is “Chondrocyte, 288 h”, the pIC50 was 4.89 and the Emax stood at 105%.
Consider `COc1cc([C@H]2[C@H]3O[C@H](C[C@@H]3O)[C@@H]2C(=O)Nc2cc(C(F)(F)F)ccc2F)ccn1` (racemic) [Example 76, rac-(1R,2R,3S,4R,5S)—N-(2-fluoro-5-(trifluoromethyl)phenyl)-5-hydroxy-3-(2-methoxypyridin-4-yl)-7-oxabicyclo[2.2.1]heptane-2-carboxamide], for which, under “Chondrocyte, 288 h”, the pIC50 is 5.14 and the Emax came to 53%.
For the compound `COc1ccc(C(F)(F)F)cc1NC(=O)[C@H]1[C@H](c2cn(C)nc2C(F)(F)F)[C@@H]2O[C@H]1C[C@H]2O` (single isomer, unassigned) [Example 33a, (1R,2R,3S,4R,5S)-5-hydroxy-N-(2-methoxy-5-trifluoromethyl)phenyl)-3-(1-methyl-3-(trifluoromethyl)-1H-pyrazol-4-L)-7-oxabicyclo[2.2.1]heptane-2-carboxamide or (1S,2S,3R,4S,5R)-5-hydroxy-N-(2-methoxy-5-(trifluoromethyl)phenyl)-3-(1-methyl-3-(trifluoromethyl)-1H-pyrazol-4-L)-7-oxabicyclo[2.2.1]heptane-2-carboxamide], the pIC50 is 5.18 and the “ALP in NHAC (% Efficacy)” value is given as 79%.
For the compound `O=C(Nc1cc(C(F)(F)F)ccn1)[C@@H]1[C@@H](c2cccc(C(F)(F)F)c2)[C@H]2O[C@@H]1C[C@@H]2O` (racemic) [Example 4, rac-(1R,2R,3S,4R,5S)-5-hydroxy-3-(3-trifluoromethyl)phenyl)-N-(4-(trifluoromethyl)pyridin-2-yl)-7-oxabicyclo[2.2.1]heptane-2-carboxamide], where the note is “Chondrocyte, 288 h”, the pIC50 was 5.15 and the Emax stood at 90%.
Turning to `Cn1cc([C@H]2[C@H]3O[C@H](C[C@@H]3O)[C@@H]2C(=O)Nc2cccc(C(F)(F)F)c2F)c(C(F)(F)F)n1` (racemic) [Example 57, rac-(1R,2R,3S,4R,5S)—N-(2-fluoro-3-(trifluoromethyl)phenyl)-5-hydroxy-3-(1-methyl-3-(trifluoromethyl-1H-pyrazol-4-yl)-7-oxabicyclo[2.2.1]heptane-2-carboxamide], under “Chondrocyte, 288 h”, the pIC50 is less than 4.52 and the Emax amounted to 50%.
The corresponding values for `COc1cc([C@H]2[C@H]3O[C@H](C[C@@H]3O)[C@@H]2C(=O)Nc2cc(C(F)(F)F)ccn2)ccn1` (racemic) [Example 77, rac-(1R,2R,3S,4R,5)-5-hydroxy-3-(2-methoxypyridin-4-yl)-N-(4-(trifluoromethyl)pyridin-2-yl)-7-oxabicyclo[2.2.1]heptane-2-carboxamide] are 4.82 and 76%.
Take `N#Cc1ccc(C(F)(F)F)cc1NC(=O)[C@@H]1[C@@H](c2cccc(C(F)(F)F)c2)[C@H]2O[C@@H]1C[C@@H]2O` (single isomer, unassigned) [Example 48a, (1R,2R,3S,4R,5S)—N-(2-cyano-5-(trifluoromethyl)phenyl)-5-hydroxy-3-(3-(trifluoromethyl)phenyl)-7-oxabicyclo[2.2.1]heptane-2-carboxamide or (1S,2S,3R,4S,5R)—N-(2-cyano-5-(trifluoromethyl)phenyl)-5-hydroxy-3-(3-(trifluoromethyl)phenyl)-7-oxabicyclo[2.2.1]heptane-2-carboxamide]: the negative logarithm of the IC50 (pIC50) is 5.82 and the “ALP in NHAC (% Efficacy)” value came to 109%.
Regarding `CC(C)n1cc([C@H]2[C@H]3O[C@H](C[C@@H]3O)[C@@H]2C(=O)Nc2cccc(C(F)(F)F)c2)c(C(F)(F)F)n1` (racemic) [Example 59, rac-(1R,2R,3S,4R,5S)-5-hydroxy-3-(1-isopropyl-3-(trifluoromethyl)-1H-pyrazol-4-yl)-N-(3-(trifluoromethyl)phenyl)-7-oxabicyclo[2.2.1]heptane-2-carboxamide], for the setting “Chondrocyte, 288 h”, the pIC50 was 4.85 and the Emax worked out at 70%.
Turning to `O=C(Nc1ccc(C(F)(F)F)c(Cl)n1)[C@@H]1[C@@H](c2cccc(C(F)(F)F)c2)[C@H]2O[C@@H]1C[C@@H]2O` (racemic) [Example 25, rac-(1R,2R,3S,4R,5S)—N-(6-chloro-5-(trifluoromethyl)pyridin-2-yl)-5-hydroxy-3-(3-(trifluoromethyl)phenyl)-7-oxabicyclo[2.2.1]heptane-2-carboxamide], under “Chondrocyte, 288 h”, the pIC50 is 5.54 and the Emax is 112%.
With `COc1ccc(C(F)(F)F)cc1NC(=O)[C@H]1[C@H](c2cn(C)nc2C(F)(F)F)[C@@H]2O[C@H]1C[C@H]2O` (single isomer, unassigned) [Example 33b, (1R,2R,3S,4R,5S)-5-hydroxy-N-(2-methoxy-5-trifluoromethyl)phenyl)-3-(1-methyl-3-(trifluoromethyl)-1H-pyrazol-4-L)-7-oxabicyclo[2.2.1]heptane-2-carboxamide or (1S,2S,3R,4S,5R)-5-hydroxy-N-(2-methoxy-5-(trifluoromethyl)phenyl)-3-(1-methyl-3-(trifluoromethyl)-1H-pyrazol-4-L)-7-oxabicyclo[2.2.1]heptane-2-carboxamide], the pIC50 was 5.51 and the “ALP in NHAC (% Efficacy)” value is reported as 99%.
Consider `COc1cc([C@H]2[C@H]3O[C@H](C[C@@H]3O)[C@@H]2C(=O)Nc2cc(C(F)(F)F)ccc2C#N)ccn1` (racemic) [Example 78, rac-(1R,2R,3S,4R,5)-N-(2-cyano-5-trifluoromethyl)phenyl)-5-hydroxy-3-(2-methoxypyridin-4-yl)-7-oxabicyclo[2.2.1]heptane-2-carboxamide], for which, where the note is “Chondrocyte, 288 h”, the pIC50 is 7.26 and the Emax stood at 74%.
The corresponding values for `O=C(Nc1cc(C(F)(F)F)c(Cl)cn1)[C@@H]1[C@@H](c2cccc(C(F)(F)F)c2)[C@H]2O[C@@H]1C[C@@H]2O` (racemic) [Example 6, rac-(1R,2R,3S,4R 5S)—N-(5-chloro-4-(trifluoromethyl)pyridin-2-yl)-5-hydroxy-3-(3-(trifluoromethyl)phenyl)-7-oxabicyclo[2.2.1]heptane-2-carboxamide] are less than 4.52 and 38%.
Regarding `CC(C)n1cc([C@H]2[C@H]3O[C@H](C[C@@H]3O)[C@@H]2C(=O)Nc2cc(C(F)(F)F)ccn2)c(C(F)(F)F)n1` (racemic) [Example 86, rac-(1R,2R,3S,4R,5S)-5-hydroxy-3-(1-isopropyl-3-(trifluoromethyl)-1H-pyrazol-4-yl)-N-(4-(trifluoromethyl)pyridin-2-yl)-7-oxabicyclo[2.2.1]heptane-2-carboxamide], for the setting “Chondrocyte, 288 h”, the pIC50 is 4.96 and the Emax was determined as 83%.
For `O=C(Nc1cc(C(F)(F)F)ccc1F)[C@@H]1[C@@H](c2cccc(C(F)(F)F)c2)[C@H]2O[C@@H]1C[C@@H]2O` (racemic) [Example 1, rac-(1R,2R,3S,4R,5S)—N-(2-fluoro-5-(trifluoromethyl)phenyl)-5-hydroxy-3-(3-(trifluoromethylphenyl)-7-oxabicyclo[2.2.1]heptane-2-carboxamide] the same measures were 4.54 and 60%.
The corresponding values for `Cc1ccc(NC(=O)[C@@H]2[C@@H](c3ccnc(C(F)(F)F)c3)[C@H]3O[C@@H]2C[C@@H]3O)cc1C(F)(F)F` (racemic) [Example 64, rac-(1R,2R,3S,4R,5S)-5-hydroxy-N-(4-methy-3-(trifluoromethyl)phenyl-3-(2-(trifluoromethyl)pyridin-4-yl)-7-oxabicyclo[2.2.1]heptane-2-carboxamide] are 4.89 and 83%.
The corresponding values for `Cn1cc([C@H]2[C@H]3O[C@H](C[C@@H]3O)[C@@H]2C(=O)Nc2ccc(C(F)(F)F)cc2)c(C(F)(F)F)n1` (racemic) [Example 29, rac-(1R,2R,3S,4R,5S)-5-hydroxy-3-(1-methyl-3-trifluoromethyl)-1H-pyrazol-4-yl)-N-(4-(trifluoromethyl)phenyl)-7-oxabicyclo[2.2.1]heptane-2-carboxamide] are 4.96 and 72%.
`Cn1cc([C@H]2[C@H]3O[C@H](C[C@@H]3O)[C@@H]2C(=O)Nc2ccc(F)c(C(F)(F)F)c2)c(C(F)(F)F)n1` (racemic) [Example 43]: where the note is “Chondrocyte, 288 h”, the pIC50 was 5.10 and the Emax came to 59%.

For orientation: pIC50 means the IC50 on a negative log10 scale, so that one unit is a factor of ten.
